Test results as given in publication PMC8141582, “Synergistic Effect of Statins and Abiraterone Acetate on the Growth Inhibition of Neuroblastoma via Targeting Androgen Receptor” (Frontiers in Oncology, 2021).
Where two headings read alike, the source gives them in different places.

Tests used:
SH-SY5Y cells = assay: MTT cell viability assay, SH-SY5Y; format: cell-based; conditions: Homo sapiens, NB cell line, 72 h
Procedure: (§1) N2a, SH-SY5Y, SK-N-BE (2), 10A, HUVEC, HL7702 cells were plated in 96-well plates at 8,000 cells/well, respectively, in complete media in triplicate wells for each dose and cultured for 18 h. The neuroblastoma cell lines, N2a, SH-SY5Y, and SK-N-BE (2), and non-cancer cell lines, 10A, HUVEC, and HL7702, were treated with simvastatin and fluvastatin in a range of doses from 0 to 20 μM and with AA from 0 to 30 μM; N2a, SH-SY5Y SK-N-BE (2), were treated with rosuvastatin in a range of doses from 0 to 100 μM for 72 h. Statins dissolved in DMSO and AA dissolved in ethanol. After 72 h treatment, the medium was added 0.5 mg/ml MTT reagent and incubated at 37°C for 4 h. Subsequently, the supernatant was aspirated, and cells were lysed in 150 µl DMSO, then shaken 10 min at 37°C. The optical density (OD) was measured at 570 and 630 nm using a plate reader.

SK-N-BE (2) cells = assay: MTT cell viability assay, SK-N-BE (2); format: cell-based; conditions: Homo sapiens, SKNBE2, NB cell line, 72 h
Procedure: as §1

10A cells = assay: MTT cell viability assay, 10A; format: cell-based; conditions: Homo sapiens, normal cell line, 72 h
Procedure: (§2) Statins dissolved in DMSO and AA dissolved in ethanol. After 72 h treatment, the medium was added 0.5 mg/ml MTT reagent and incubated at 37°C for 4 h. Subsequently, the supernatant was aspirated, and cells were lysed in 150 µl DMSO, then shaken 10 min at 37°C. The optical density (OD) was measured at 570 and 630 nm using a plate reader.

HUVEC cells = assay: MTT cell viability assay, HUVEC; format: cell-based; conditions: Homo sapiens, normal cell line, 72 h
Procedure: as §2

HL7702 cells = assay: MTT cell viability assay, HL7702; format: cell-based; conditions: Homo sapiens, L02, normal cell line, 72 h
Procedure: as §2

N2a cells = assay: Wound healing assay, N2a; format: cell-based, mouse; conditions: 1.5 μM simvastatin, 48 h
Procedure: N2a, SH-SY5Y, and SK-N-BE (2) cells were cultured in six-well plates (5 × 10^5cells/well) and incubated till they reached 90–100% confluence. The cells were then maintained in phenol red-free DMEM/DMEM-F12 with 2.5%FBS, in order to minimize the cell proliferation. A sterile 20 µl tip was used to create scratch wounds of the same width. The plates were then washed twice with phosphate-buffered saline (PBS) to remove the detached cells. Photos were taken at 0, 24, and 48 h, and the area covered by the cells enumerated the closure of the wounds. Each experiment was performed in triplicate.

U87MG = system: U87MG; parameters: method as in Supplement [1]; key: Positive: Simvastatin alone inhibited the progression of cancer; Negative: Simvastatin alone could not inhibit the progression of cancer; conditions: Glioma, 2.5 mg/kg/day, s.c.; ref Supplement [1]; cited from earlier work
GL-26 cells = system: GL-26 cells; parameters: method as in Supplement [2]; key: Positive: Simvastatin alone inhibited the progression of cancer; Negative: Simvastatin alone could not inhibit the progression of cancer; conditions: Human glioblastoma multiforme, 1.0 mg/kg/day or 10.0 mg/kg/day, oral; ref Supplement [2]; cited from earlier work
[1] = system: HLMC cells from the primary patients; parameters: method as in Supplement [4]; key: Positive: Simvastatin alone inhibited the progression of cancer; Negative: Simvastatin alone could not inhibit the progression of cancer; conditions: Lung Carcinoma, 50.0 mg/kg/day, oral; ref Supplement [4]; cited from earlier work
SNU-5 cells = system: SNU-5 cells; parameters: method as in Supplement [6]; key: Positive: Simvastatin alone inhibited the progression of cancer; Negative: Simvastatin alone could not inhibit the progression of cancer; conditions: Gastric Cancer, 2.1 mg/kg/day, i.p.; ref Supplement [6]; cited from earlier work
HepG2 cells = system: HepG2 cells; parameters: method as in Supplement [7]; key: Positive: Simvastatin alone inhibited the progression of cancer; Negative: Simvastatin alone could not inhibit the progression of cancer; conditions: Hepatocellular Carcinoma, 40.0 mg/kg/day, i.p.; ref Supplement [7]; cited from earlier work
CAPAN-2 cells = system: CAPAN-2 cells; parameters: method as in Supplement [8]; key: Positive: Simvastatin alone inhibited the progression of cancer; Negative: Simvastatin alone could not inhibit the progression of cancer; conditions: Pancreatic Cancer, 0.5 mg/kg/day, oral; ref Supplement [8]; cited from earlier work
[2] = system: Panc-1 cells from the primary tumors; parameters: method as in Supplement [9]; key: Positive: Simvastatin alone inhibited the progression of cancer; Negative: Simvastatin alone could not inhibit the progression of cancer; conditions: Pancreatic Ductal Adenocarcinoma, 20.0 mg/kg/day, i.p.; ref Supplement [9]; cited from earlier work
[3] = system: HCT116 p53 +/+ or p53 -/- cells; parameters: method as in Supplement [12]; key: Positive: Simvastatin alone inhibited the progression of cancer; Negative: Simvastatin alone could not inhibit the progression of cancer; conditions: Colorectal Cancer, 20.0 mg/kg/day, i.p.; ref Supplement [12]; cited from earlier work
A498 cells = system: A498 cells; parameters: method as in Supplement [14]; key: Positive: Simvastatin alone inhibited the progression of cancer; Negative: Simvastatin alone could not inhibit the progression of cancer; conditions: Renal Cancer, 5.0 mg/kg/day, oral; ref Supplement [14]; cited from earlier work
LAPC-4 cells = system: LAPC-4 cells; parameters: method as in Supplement [16]; key: Positive: Simvastatin alone inhibited the progression of cancer; Negative: Simvastatin alone could not inhibit the progression of cancer; conditions: Prostate Cancer, 11.0 mg/kg/day, s.c.; ref Supplement [16]; cited from earlier work
[4] = system: specimens of T-ALL patients; parameters: method as in Supplement [25]; key: Positive: Simvastatin alone inhibited the progression of cancer; Negative: Simvastatin alone could not inhibit the progression of cancer; conditions: Pediatric Acute Lymphoblastic Leukemia, 20.0 mg/kg/day, oral; ref Supplement [25]; cited from earlier work
K562 cells = system: K562 cells; parameters: key: Positive: Simvastatin alone inhibited the progression of cancer; Negative: Simvastatin alone could not inhibit the progression of cancer; conditions: Chronic Myelogenous Leukemia, i.p., cited from earlier work

- IC50 (SH-SY5Y cells): 9.69 µM
- IC50 (SK-N-BE (2) cells): 10.5 µM
Structure (SMILES): CCC(C)(C)C(=O)O[C@H]1C[C@@H](C)C=C2C=C[C@H](C)[C@H](CC[C@@H]3C[C@@H](O)CC(=O)O3)[C@H]21 [Simvastatin]
- IC50 (10A cells): 26.7 µM
- IC50 (HUVEC cells): 14.6 µM
- IC50 (HL7702 cells): 20.6 µM
- migration vs control group (N2a cells): significantly higher
- Results (simvastatin alone) (U87MG): Positive
- Results (simvastatin alone) (GL-26 cells): Negative
- Results (simvastatin alone) [1]: Positive
- Results (simvastatin alone) (SNU-5 cells): Positive
- Results (simvastatin alone) (HepG2 cells): Positive
- Results (simvastatin alone) (CAPAN-2 cells): Positive
- Results (simvastatin alone) [2]: Positive
- Results (simvastatin alone) [3]: Positive
- Results (simvastatin alone) (A498 cells): Positive
- Results (simvastatin alone) (LAPC-4 cells): Negative
- Results (simvastatin alone) [4]: Negative
- Results (simvastatin alone) (K562 cells; 1.3 mg/kg/day or 2.0 mg/kg/day, ref Supplement [26]): Positive
- Results (simvastatin alone) (K562 cells; 7.1 mg/kg/day or 14.3 mg/kg/day, ref Supplement [27]): Positive
